This passage reports Ki, Activity and IC50 results from ChEMBL document CHEMBL1149874 (Bioorg Med Chem, 2008).

In experiment [1] the target is T1, Mu-type opioid receptor (Homo sapiens, UniProt P35372). As to the kind of experiment: Displacement of [3H]DAMGO from mu opioid receptor in human SH-SY5Y cells. In kind it is cell-based. In general terms: Displacement assays read how much labelled ligand stays bound in the presence of the test substance.
Experiment [2] concerns the target T1, Mu-type opioid receptor. As to the kind of experiment: Decrease in internalization of mu opioid receptor in human SH-SY5Y cells. In kind it is cell-based.
Experiment [3] concerns the target T1, Mu-type opioid receptor. As to the kind of experiment: Increase in internalization of mu opioid receptor in human SH-SY5Y cells. In kind it is cell-based.
In experiment [4] the target is T1, Mu-type opioid receptor. As to the kind of experiment: Agonist activity at mu opioid receptor assessed as inhibition of forskolin-induced cAMP production in human SH-SY5Y cells pretreated for 24 hrs with DMEM medium after 15 mins. In kind it is functional, cell-based. (Cyclic AMP is a second messenger, typically raised through Gs and lowered through Gi signalling.)

The target in experiment [5] is T1, Mu-type opioid receptor. The experiment in a line: Agonist activity at mu opioid receptor assessed as inhibition of forskolin-induced cAMP production in human SH-SY5Y cells pretreated for 24 hrs with excess ligand after 15 mins. The format is functional, cell-based.

The source made the active and inactive calls. The rule behind the calls is not given here. Residues, ends and D or L forms follow the SMILES beside them.

T1 sequence (P35372 whole entry): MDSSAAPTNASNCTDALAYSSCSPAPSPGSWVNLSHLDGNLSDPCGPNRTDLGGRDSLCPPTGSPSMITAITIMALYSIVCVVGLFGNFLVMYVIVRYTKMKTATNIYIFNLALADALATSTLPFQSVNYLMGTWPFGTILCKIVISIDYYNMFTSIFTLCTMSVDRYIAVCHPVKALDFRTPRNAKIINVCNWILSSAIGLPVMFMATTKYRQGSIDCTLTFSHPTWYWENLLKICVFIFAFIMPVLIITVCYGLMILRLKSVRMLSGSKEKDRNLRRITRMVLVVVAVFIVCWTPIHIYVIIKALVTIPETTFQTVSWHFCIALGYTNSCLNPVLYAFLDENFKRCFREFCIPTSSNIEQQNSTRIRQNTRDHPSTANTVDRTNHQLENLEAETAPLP

As to `C[C@H](NC(=O)[C@H](C)NC(=O)[C@@H]1CCCN1C(=O)[C@@H](N)Cc1ccc(O)cc1)C(N)=O` (H-YPAA-NH2), the affinity in experiment [1] corresponds to a Ki of 705 nM. In addition, the outcome in experiment [2] was Active.

In experiment [1], H-YGGWL-NH2 yielded a Ki of 12.1 nM. The compound further yielded an Activity in experiment [3] of 22%. Besides, the results for the IC50 in experiment [4] and in experiment [5] were 27.5 nM and 49.2 nM, respectively.

In experiment [1], `C[C@H](NC(=O)[C@@H](N)Cc1ccc(O)cc1)C(=O)N[C@@H](Cc1c[nH]c2ccccc12)C(=O)N[C@@H](Cc1ccccc1)C(N)=O` (H-YAWF-NH2) gave a Ki of 3190 nM.

`C[C@H](NC(=O)[C@@H]1CCCN1C(=O)[C@@H](N)Cc1ccc(O)cc1)C(=O)N[C@@H](Cc1ccccc1)C(N)=O` (H-YPAF-NH2) returned a Ki in experiment [1] of 226 nM. Besides, the result in experiment [2] was Active.

`C[C@H](NC(=O)[C@H](Cc1c[nH]c2ccccc12)NC(=O)[C@@H]1CCCN1C(=O)[C@@H](N)Cc1ccc(O)cc1)C(N)=O` (H-YPWA-NH2): in experiment [1], the affinity, expressed as Ki, was 72.7 nM. Besides, in experiment [2], the result was Active.

On to H-YGWFL-NH2, for which affinity in experiment [1] was put at a Ki of 113 nM. Moreover, the Activity in experiment [3] turned out to be 40%. The IC50 was 126 nM in experiment [4] and 132 nM in experiment [5].

For orientation: Ki means the equilibrium dissociation constant of an inhibitor or competing ligand from its target. Read a low Ki as higher affinity. The term IC50 denotes the point on the concentration scale where inhibition reaches its midpoint.
